Measured values reported in ChEMBL document CHEMBL1149760, “Chemoenzymatic synthesis and antimicrobial activity evaluation of monogalactosyl diglycerides” (2008).

Key:
Assay type in all cases: functional
[1] = system: Mycobacterium tuberculosis; assay: Antimicrobial activity against Mycobacterium tuberculosis H190 by agar dilution method
Escherichia coli = assay: Antimicrobial activity against Escherichia coli ATCC 25922 by agar dilution method
Kluyveromyces marxianus = assay: Antifungal activity against Candida pseudotropicalis by agar dilution method
[2] = system: Mycobacterium tuberculosis; assay: Antimicrobial activity against Mycobacterium tuberculosis H37Rv by agar dilution method
Staphylococcus aureus [3] = assay: Antimicrobial activity against Staphylococcus aureus SA85 by agar dilution method
Pseudomonas aeruginosa = assay: Antimicrobial activity against Pseudomonas aeruginosa ATCC 27753 by agar dilution method
Staphylococcus aureus [4] = assay: Antimicrobial activity against Staphylococcus aureus ATCC 25923 by agar dilution method
Bacillus subtilis = assay: Antimicrobial activity against Bacillus subtilis ATCC 6633 by agar dilution method
Staphylococcus aureus [5] = assay: Antimicrobial activity against Staphylococcus aureus ATCC 105487 by agar dilution method
[6] = system: Mycobacterium tuberculosis; assay: Antimicrobial activity against Mycobacterium tuberculosis H160 by agar dilution method
Candida albicans = assay: Antifungal activity against Candida albicans by agar dilution method
Staphylococcus aureus [7] = assay: Antimicrobial activity against Staphylococcus aureus SA87 by agar dilution method
Enterococcus faecalis = assay: Antimicrobial activity against Enterococcus faecalis ATCC 29212 by agar dilution method
Staphylococcus aureus [8] = assay: Antimicrobial activity against Staphylococcus aureus SA52 by agar dilution method

Row | SMILES | MIC [1] [µg/mL] | MIC (Escherichia coli) [µg/mL] | MIC (Kluyveromyces marxianus) [µg/mL] | MIC [2] [µg/mL] | MIC (Staphylococcus aureus [3]) [µg/mL] | MIC (Pseudomonas aeruginosa) [µg/mL] | MIC (Staphylococcus aureus [4]) [µg/mL] | MIC (Bacillus subtilis) [µg/mL] | MIC (Staphylococcus aureus [5]) [µg/mL] | MIC [6] [µg/mL] | MIC (Candida albicans) [µg/mL] | MIC (Staphylococcus aureus [7]) [µg/mL] | MIC (Enterococcus faecalis) [µg/mL] | MIC (Staphylococcus aureus [8]) [µg/mL]
1 | CC/C=C/C/C=C/C/C=C/CCCCCCCC(=O)OC(COC(=O)CCCCCCCCC)CO[C@@H]1O[C@H](CO)[C@H](O)[C@H](O)[C@H]1O (mixture of isomers) | > 128 | > 128 | > 128 | > 128 | 64 | > 128 | > 128 | > 128 | > 128 | > 128 | > 128 | 32 | > 128 | > 128
2 | CCCCCCCC/C=C/CCCCCCCC(=O)OC(COC(=O)CCCCCCC)CO[C@@H]1O[C@H](CO)[C@H](O)[C@H](O)[C@H]1O (mixture of isomers) | 64 | > 128 | > 128 | 128 | > 128 | > 128 | > 128 | 128 | > 128 | 64 | > 128 | 64 | > 128 | > 128
3 | CCCCC/C=C/C/C=C/CCCCCCCC(=O)OC(COC(=O)CCCCCCC)CO[C@@H]1O[C@H](CO)[C@H](O)[C@H](O)[C@H]1O (mixture of isomers) | 128 | > 128 | > 128 | 64 | > 128 | > 128 | > 128 | 128 | > 128 | 64 | > 128 | 128 | > 128 | > 128
4 | CC/C=C/C/C=C/C/C=C/CCCCCCCC(=O)OC(COC(=O)CCCCCCC)CO[C@@H]1O[C@H](CO)[C@H](O)[C@H](O)[C@H]1O (mixture of isomers) | 128 | > 128 | > 128 | 128 | > 128 | > 128 | > 128 | 128 | > 128 | 128 | > 128 | 64 | > 128 | > 128
5 | CCCCCCCC/C=C/CCCCCCCC(=O)OC(COC(=O)CCCCCCCCC)CO[C@@H]1O[C@H](CO)[C@H](O)[C@H](O)[C@H]1O (mixture of isomers) | > 128 | > 128 | > 128 | > 128 | 128 | > 128 | 128 | 32 | > 128 | > 128 | > 128 | > 128 | > 128 | > 128
6 | CCCCC/C=C/C/C=C/CCCCCCCC(=O)OC(COC(=O)CCCCCCCCC)CO[C@@H]1O[C@H](CO)[C@H](O)[C@H](O)[C@H]1O (mixture of isomers) | > 128 | > 128 | > 128 | > 128 | 64 | > 128 | > 128 | 128 | 64 | > 128 | > 128 | 64 | 128 | > 128
7 | CCCCC/C=C/C/C=C/CCCCCCCC(=O)OCC(CO[C@@H]1O[C@H](CO)[C@H](O)[C@H](O)[C@H]1O)OC(=O)CCCCCCC/C=C/C/C=C/CCCCC (mixture of isomers) | 128 | > 128 | > 128 | 128 | > 128 | > 128 | > 128 | 128 | > 128 | 128 | > 128 | 128 | > 128 | > 128
8 | CCCCCCCC/C=C/CCCCCCCC(=O)OCC(CO[C@@H]1O[C@H](CO)[C@H](O)[C@H](O)[C@H]1O)OC(=O)CCCCCCC/C=C/CCCCCCCC (mixture of isomers) | > 128 | > 128 | > 128 | > 128 | > 128 | > 128 | > 128 | > 128 | > 128 | > 128 | > 128 | > 128 | > 128 | > 128
9 | CC/C=C/C/C=C/C/C=C/CCCCCCCC(=O)OCC(CO[C@@H]1O[C@H](CO)[C@H](O)[C@H](O)[C@H]1O)OC(=O)CCCCCCC/C=C/C/C=C/C/C=C/CC (mixture of isomers) | > 128 | > 128 | > 128 | > 128 | > 128 | > 128 | 128 | > 128 | > 128 | > 128 | > 128 | > 128 | > 128 | > 128
